Results on 10 molecules are retold here after patent publication US11524966B1 (Valo Early Discovery, Inc., priority 2017, dated 2022).

For orientation: IC50 means the point on the concentration scale where inhibition reaches its midpoint.

The structures appear in SMILES notation.

The test has as its target T1, USP25 (USP25-His6, Boston Biochem E-546) (Homo sapiens, UniProt Q9UHP3).
T1 construct: His6; purchased Boston Biochem E-546
T1 sequence (Q9UHP3 1-1055): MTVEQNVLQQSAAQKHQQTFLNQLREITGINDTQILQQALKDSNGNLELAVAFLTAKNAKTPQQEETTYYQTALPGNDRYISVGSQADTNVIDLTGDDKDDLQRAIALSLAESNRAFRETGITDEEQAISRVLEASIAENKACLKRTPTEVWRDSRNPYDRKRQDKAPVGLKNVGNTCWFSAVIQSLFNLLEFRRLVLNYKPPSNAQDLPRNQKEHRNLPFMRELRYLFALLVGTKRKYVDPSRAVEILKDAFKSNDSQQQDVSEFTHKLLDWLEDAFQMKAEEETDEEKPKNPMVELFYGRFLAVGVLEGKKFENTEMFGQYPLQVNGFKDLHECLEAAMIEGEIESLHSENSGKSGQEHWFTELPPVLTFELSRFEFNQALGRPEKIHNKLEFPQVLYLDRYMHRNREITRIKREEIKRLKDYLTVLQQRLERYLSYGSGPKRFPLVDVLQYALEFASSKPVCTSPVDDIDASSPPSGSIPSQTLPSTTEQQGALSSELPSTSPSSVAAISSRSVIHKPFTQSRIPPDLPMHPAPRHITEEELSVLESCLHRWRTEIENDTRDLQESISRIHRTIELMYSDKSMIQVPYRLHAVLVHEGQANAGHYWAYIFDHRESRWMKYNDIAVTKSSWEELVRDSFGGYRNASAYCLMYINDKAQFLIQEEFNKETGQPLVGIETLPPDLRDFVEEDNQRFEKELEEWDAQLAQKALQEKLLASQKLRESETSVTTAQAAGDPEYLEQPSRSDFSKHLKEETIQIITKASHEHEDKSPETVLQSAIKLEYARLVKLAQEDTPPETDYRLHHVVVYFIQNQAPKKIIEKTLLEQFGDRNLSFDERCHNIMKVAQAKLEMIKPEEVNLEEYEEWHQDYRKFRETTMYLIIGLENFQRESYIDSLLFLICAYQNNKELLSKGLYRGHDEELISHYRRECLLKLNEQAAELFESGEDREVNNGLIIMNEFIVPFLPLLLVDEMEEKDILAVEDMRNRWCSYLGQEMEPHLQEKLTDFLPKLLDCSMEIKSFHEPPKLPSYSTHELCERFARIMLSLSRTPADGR
Briefly: Ubiquitin-Rhodamine 110 Assay for USP25 Activity, Example A-2. The class given is biochemical. The note with it: Ubiquitin-Rhodamine 110 assay, Example A-2; read-out: USP25 A-2 IC50 range. The method, boiled down:
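Cleavage of ubiquitin-rhodamine 110 (25 nM, well below Km) by His-tagged USP25 at 75 pM is measured fluorimetrically after 45 min at room temperature and acid quench. Inhibitors are preincubated with enzyme for 30 minutes. IC50 values come from four-parameter logistic curve fitting.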
In the case of `COC[C@@H]1CN(c2ccc3c(c2)CC[C@H](NC(=O)c2sc4nc(C)ccc4c2N)C3)C[C@@H]1N` [Example 252, 3-amino-N-[(2S)-6-[(3R,4R)-3-amino-4-(methoxymethyl)pyrrolidin-1-yl]-1,2,3,4-tetrahydronaphthalen-2-yl]-6-methylthieno[2,3-b]pyridine-2-carboxamide], the IC50 was 0.2 to 2 µM. In the case of `CO[C@H]1CN(c2ccc3c(c2)CC[C@H](NC(=O)c2cnc4c(c2)[C@H]2C[C@H]2CN4)C3)C[C@@H]1N` [Example 190, (6aR,7aS)-N-[(2S)-6-[(3S,4S)-3-amino-4-methoxypyrrolidin-1-yl]-1,2,3,4-tetrahydronaphthalen-2-yl]-5H,6H,6aH,7H,7aH-cyclopropa[c]1,8-naphthyridine-2-carboxamide] it was above 2 µM; in that of `CO[C@@]1(C)CN(c2ccc3c(n2)CC[C@H](NC(=O)c2sc4nc(C)ccc4c2N)C3)C[C@@H]1N` [Example 210, 3-amino-N-[(6S)-2-[(3S,4S)-4-amino-3-methoxy-3-methylpyrrolidin-1-yl]-5,6,7,8-tetrahydroquinolin-6-yl]-6-methylthieno[2,3-b]pyridine-2-carboxamide], above 2 µM. Take `CO[C@@H]1CN(c2ccc3c(n2)CC[C@H](NC(=O)c2sc4nc(C)ccc4c2N)C3)C[C@@]1(C)N` [Example 240, 3-amino-N-[(6S)-2-[(3R,4R)-3-amino-4-methoxy-3-methylpyrrolidin-1-yl]-5,6,7,8-tetrahydroquinolin-6-yl]-6-methylthieno[2,3-b]pyridine-2-carboxamide]: the IC50 was above 2 µM. The same measure for `CO[C@H]1CN(c2ccc3c(n2)OC[C@H](NC(=O)c2sc4nc(C)cnc4c2N)C3)C[C@@H]1N` [Example 181, 7-amino-N-[(3R)-7-[(3S,4S)-3-amino-4-methoxypyrrolidin-1-yl]-2H,3H,4H-pyrano[2,3-b]pyridin-3-yl]-3-methylthieno[2,3-b]pyrazine-6-carboxamide]: above 2 µM; for `CO[C@H]1CN(c2ccc3c(c2C#N)CC[C@H](NC(=O)c2sc4nc(C)ccc4c2N)C3)C[C@@H]1N` [Example 178, 3-amino-N-[(2S)-6-[(3S,4S)-3-amino-4-methoxypyrrolidin-1-yl]-5-cyano-1,2,3,4-tetrahydronaphthalen-2-yl]-6-methylthieno[2,3-b]pyridine-2-carboxamide]: 0.2 to 2 µM; for `Cc1ccc2c(N)c(C(=O)N[C@H]3COc4cc(N5CCC[C@H]6CNC[C@H]65)ccc4C3)sc2n1` [Example 243, N-[(3R)-7-[(4aS,7aS)-octahydro-1H-pyrrolo[3,4-b]pyridin-1-yl]-3,4-dihydro-2H-1-benzopyran-3-yl]-3-amino-6-methylthieno[2,3-b]pyridine-2-carboxamide]: 0.001 to 0.05 µM. Turning to `COC[C@@H]1CN(c2cc(F)c3c(c2)OC[C@H](NC(=O)c2sc4nc(C)ccc4c2N)C3)C[C@@H]1N` [Example 250, 3-amino-N-[(3R)-7-[(3R,4R)-3-amino-4-(methoxymethyl)pyrrolidin-1-yl]-5-fluoro-3,4-dihydro-2H-1-benzopyran-3-yl]-6-methylthieno[2,3-b]pyridine-2-carboxamide], the IC50 fell in the range of 0.2 to 2 µM. In the case of `Cc1cc(C)c2c(N)c(C(=O)N[C@H]3COc4c(C#N)c(N5CC6CCC(C5)N6)cc(F)c4C3)sc2n1` [Example 230, 3-amino-N-[(3R)-8-cyano-7-{3,8-diazabicyclo[3.2.1]octan-3-yl}-5-fluoro-3,4-dihydro-2H-1-benzopyran-3-yl]-4,6-dimethylthieno[2,3-b]pyridine-2-carboxamide] it was 0.2 to 2 µM; in that of `N#Cc1c(N2CC3CCC(C2)N3)cc(F)c2c1OC[C@H](NC(=O)c1cnc3c(c1)[C@@H]1C[C@@H]1CN3)C2` [Example 228, (6aS,7aR)-N-[(3R)-8-cyano-7-{3,8-diazabicyclo[3.2.1]octan-3-yl}-5-fluoro-3,4-dihydro-2H-1-benzopyran-3-yl]-5H,6H,6aH,7H,7aH-cyclopropa[c]1,8-naphthyridine-2-carboxamide], 0.2 to 2 µM.
